Here are results for two molecules from ChEMBL document CHEMBL5042521, “A Structure-based Design Approach for Generating High Affinity BRD4 D1-Selective Chemical Probes” (J Med Chem, 2022).

For assay [1], the target named is Bromodomain-containing protein 2 (Homo sapiens, UniProt P25440).
Description: Binding affinity to BRD2 D1 (unknown origin) assessed as dissociation constant by isothermal titration calorimetry
In assay [2] the target is Bromodomain-containing protein 4 (Homo sapiens, UniProt O60885).
Description: Binding affinity to BRD4 D2 (unknown origin) assessed as dissociation constant by isothermal titration calorimetry

Chain of Bromodomain-containing protein 2 (P25440 whole entry): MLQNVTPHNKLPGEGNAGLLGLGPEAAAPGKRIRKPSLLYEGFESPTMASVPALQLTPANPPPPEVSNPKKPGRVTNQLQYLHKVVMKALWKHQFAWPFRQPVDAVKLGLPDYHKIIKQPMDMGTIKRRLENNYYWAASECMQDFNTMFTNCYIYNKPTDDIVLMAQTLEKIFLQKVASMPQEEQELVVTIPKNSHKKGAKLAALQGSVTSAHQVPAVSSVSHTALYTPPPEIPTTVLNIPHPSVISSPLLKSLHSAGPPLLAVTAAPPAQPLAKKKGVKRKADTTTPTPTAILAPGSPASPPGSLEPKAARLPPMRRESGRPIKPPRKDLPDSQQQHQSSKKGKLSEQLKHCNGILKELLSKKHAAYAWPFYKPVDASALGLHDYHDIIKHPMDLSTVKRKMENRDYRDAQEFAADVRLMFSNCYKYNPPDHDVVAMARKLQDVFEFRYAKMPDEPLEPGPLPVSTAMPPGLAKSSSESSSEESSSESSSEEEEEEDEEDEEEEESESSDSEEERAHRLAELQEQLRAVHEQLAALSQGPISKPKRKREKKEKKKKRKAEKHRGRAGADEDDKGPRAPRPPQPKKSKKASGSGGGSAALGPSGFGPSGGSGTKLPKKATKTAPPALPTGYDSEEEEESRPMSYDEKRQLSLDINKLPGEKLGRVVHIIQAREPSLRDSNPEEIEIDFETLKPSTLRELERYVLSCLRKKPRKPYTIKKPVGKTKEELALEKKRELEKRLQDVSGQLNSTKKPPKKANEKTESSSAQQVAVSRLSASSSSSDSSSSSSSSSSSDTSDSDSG

For the molecule `Cc1ccc(C(C)C)cc1Oc1nccc(-c2c(-c3ccc(C(F)(F)F)cc3)ncn2[C@H]2CCN(CCN(C)C)C2)n1`, the Kd entry in assay [1] and in assay [2] was “Not Active” throughout.
On to `Cc1ccc(C(C)C)cc1Oc1nccc(-c2c(-c3ccc(C(F)(F)F)cc3)ncn2C2CCN(CCN(C)C)CC2)n1`, for which the Kd result in assay [1] and in assay [2] was “Not Active” each time.
